Assay results published in patent publication US20240000772A1, “MICROSPHERE FORMULATIONS COMPRISING NALTREXONE AND METHODS FOR MAKING AND USING THE SAME” (Oakwood Laboratories, LLC, priority 2021, published 2024).
Values after ≈ are worked out from the molar mass of the structure shown. Counter-ions that a name gives are not always drawn. Like-named read-outs stand apart in the source and are kept apart here.

Tests used:
[1] = Solubility of naltrexone in solvents; format: physicochemical
Text: (§1) In one aspect, the naltrexone is a free base.
In another aspect, the naltrexone is an HCl salt.

pKa of naltrexone = format: physicochemical
Text: as §1

Structure (SMILES) | solubility ([1]; naltrexone HCl salt, in water, read-out: water solubility) | solubility ([1]; benzyl alcohol, organic solvent or mixture, naltrexone free base, in BA, read-out: benzyl alcohol (BA) solubility) | solubility ([1]; dichloromethane, organic solvent or mixture, naltrexone free base, in DCM, read-out: dichloromethane (DCM) solubility) | solubility ([1]; ethyl acetate, organic solvent or mixture, naltrexone free base, in EA, read-out: ethyl acetate (EA) solubility) | pKa (pKa of naltrexone)
O=C1CC[C@@]2(O)[C@H]3Cc4ccc(O)c5c4[C@@]2(CCN3CC2CC2)[C@H]1O5 [naltrexone HCl salt] | ~100 mg/mL |  |  |  | 
O=C1CC[C@@]2(O)[C@H]3Cc4ccc(O)c5c4[C@@]2(CCN3CC2CC2)[C@H]1O5 [naltrexone, Naltrexone] |  | > 250 mg/mL | 100 mg/mL (≈ 293 mM) | 26 mg/mL (≈ 76.2 mM) | 8.4
